In patent US20220175761A1, “BI-LIGAND DRUG CONJUGATE AND USE THEREOF” (COHERENT BIOPHARMA (SUZHOU), LIMITED, priority 2019, published 2022):
Numbered stars: 1 amine (or outer) side, 2 acyl side, 3 side chain; on linkers, the order of the positions; unused ones are H or OH. Bridge positions count the residues as written; N and C are the ends. Square brackets hold non-standard residues; d marks the D form. Peptide text beside a SMILES is read from it. I, II: the chains in the order shown. * marks the point of attachment. ξ: configuration not given here. Hexanoyl(6-succinimido-3yl) = O=C1CC([*:1])C(=O)N1CCCCCC(=O)[*:2]; EuK = O=C(O)CC[C@H](NC(=O)N[C@@H](CCCCN*)C(=O)O)C(=O)O; Dolaproine = CO[C@@H]([C@@H]1CCCN1)[C@@H](C)C(=O)O; Dil = CC[C@H](C)[C@H](NC)[C@@H](CC(=O)O)OC; PABC = O=C(OCc1ccc(N[*:1])cc1)[*:2]; X1 = C[C@@H](N*)[C@@H](O)c1ccccc1; X2 = O=C(Cc1ccc(CN[*:1])cc1)[*:2]; PEG4 = NCCOCCOCCOCCOCCC(=O)O; NMeV = CN[C@H](C(=O)O)C(C)C; ξCit = NC(=O)NCCCC(N)C(=O)O; CO = O=C([*:1])[*:2]; ξV = CC(C)C(N)C(=O)O; Ahx = NCCCCCC(=O)O

Key:
[1] = tested on: HPAF-II (human pancreatic cancer cells); assay: Tumor growth inhibition in subcutaneous xenograft model (CDX); format: in vivo, BALB/c-nude mice
Protocol: (§1) Main CDX models: HPAF-II (human pancreatic cancer cells), NCI-H226 (human lung cancer cells) and SCLC-21H (small cell lung cancer cells)
(§2) The cells or tumor tissue mass were prepared and subcutaneously inoculated into the anterior right flank of BALB/c-nude mice. When the tumor volume expanded to 80-160 mm^3, a randomized grouping was performed, and a model control group and administration groups were set. The mice were administrated from the first day of grouping, wherein the administration dose was adjusted according to the latest weight measurement. The mice were administrated via tail vein injection at an administration volume of 10 μl/g. After grouping and administration, the effects of tumor growth and treatment on normal behaviors of animals, specifically including the activity of experimental animals, food intake and drinking status, weight gain or loss status, and other abnormal conditions in eyes, hair, etc., were monitored. After grouping and administration, the weight of mice was measured twice a week to calculate the rate of weight change; at the same time, the long diameter and short diameter of the tumor were measured with a vernier caliper, and the tumor volume, relative tumor proliferation rate, tumor volume inhibition rate and other indicators were calculated. The formula of tumor volume is TV=0.5 a×b^2, wherein a is […] the long diameter of a tumor and b is the short diameter of a tumor.

[2] = tested on: LNCaP (human prostate cancer cells); assay: Inhibition of cell line proliferation, CCK8; format: cell-based; details: LNCaP; for IC50: 68-72 hours, CCK8
From the text: Since different cells have different sensitivity to a cell proliferation inhibitory toxicity of the payload in a ligand conjugate, the quantitative analysis may be interfered occasionally. A series of cell lines with known expression levels of receptors of different ligands were selected and tested for the response to inhibitory effects of the cell proliferation of a ligand conjugate and a single payload. The IC50 ratio of a single payload to that of a ligand conjugate in same cell line were taken to remove such interference.
Experimental operations: LNCaP and 22RV1 cells were prepared in advance, counted, and plated in 96-well cell culture plates at a cell density of 4×10^4 cells/ml and 2.0×10^4 cells/ml, respectively (100 μl/well); negative control and blank control wells were set on each plate. After adherent cell culture overnight, the diluted samples to be tested were added at 50 μl/well. The plates were placed in an incubator at 37° C., 5% CO2 and cultured for 68-72 hours. To each well, 15 μl (10% of the liquid volume in a well) of a color developing solution from CCK8 was added; and the plates were incubated at 37° C. for 45-70 minutes and each plate was read at 450 nm on a microplate reader. The data was edited using SoftMax Pro and a 4-P fitting curve was plotted. […]

[3] = tested on: PANC-1 (human pancreatic cancer cells); assay: Inhibition of cell line proliferation, CCK8; format: cell-based
Protocol: Experimental operations: PANC-1 and CFPAC-1 cells were prepared in advance, counted, and plated in 96-well cell culture plates at a cell density of 4×10^4 cells/ml (100 μl/well); negative control and blank control wells were set on each plate. After adherent cell culture overnight, the diluted samples to be tested were added at 50 μl/well. The plates were placed in an incubator at 37° C., 5% CO2 and cultured for 68-72 hours. To each well, 15 μl (10% of the liquid volume in a well) of a color developing solution from CCK8 was added; and the plates were incubated at 37° C. for 45-70 minutes and each plate was read at 450 nm on a microplate reader. The data was edited using SoftMax Pro and a 4-P fitting curve was plotted.
(§3) Experimental operations: LNCaP, SK-BR-3, NCI-H226, CFPAC-1 and PANC-1 cells were prepared in advance and counted; with a culture medium (IMDM+10% FBS+1× L-Glutamine+1×P/S), the cells LNCaP, SK-BR-3 and CFPAC-1 were diluted to 4×10^4 cells/ml, NCI-H226 was diluted to 2.0×10^4 cells/ml and PANC-1 was diluted to 3.0×10^4 cells/ml; the diluted cell solution was plated in 96-well plates at 100 μl/well; and negative control and blank control wells were set on each plate. After adherent cell culture overnight, the diluted samples to be tested were added at 50 μl/well. The plates were placed in an incubator at 37° C., 5% CO2 and cultured for 68-72 hours. To each well, 15 μl (10% of the liquid volume in a well) of a color developing solution from CCK8 was added; and the plates were incubated at 37° C. for 45-70 minutes and each plate was read at 450 nm on a microplate reader. The data was edited using SoftMax Pro and a 4-P fitting curve was plotted.
as §3, with “Operations:” for “operations:”, “MDA-MB-468,” for “SK-BR-3, NCI-H226,”, “MDA-MB-468” for “SK-BR-3”, “cells/ml,” for “cells/ml, NCI-H226 was diluted to 2.0×10^4 cells/ml”

[4] = tested on: SK-BR-3 (human breast cancer cells); assay: Inhibition of cell line proliferation, CCK8; format: cell-based; details: for IC50 (MMAE)/IC50 (conjugate): SK-BR-3; for IC50: SK-BR-3, 68-72 hours, CCK8
Protocol: as §3
Experimental Operations: LNCaP, SK-BR-3, MDA-MB-468 and CFPAC-1 cells were prepared in advance and counted; with a culture medium (IMDM+10% FBS+1× L-Glutamine+1×P/S), the cells LNCaP, SK-BR-3, MDA-MB-468 and CFPAC-1 were diluted to 4×10^4 cells/ml; the diluted cell solution was plated in 96-well plates at 100 µl/well; and negative control and blank control wells were set on each plate. After adherent cell culture overnight, the diluted samples to be tested were added at 50 μl/well. The plates were placed in an incubator at 37° C., 5% CO2 and cultured for 68-72 hours. To each well, 15 μl (10% of the liquid volume in a well) of a color developing solution from CCK8 was added; and the plates were incubated at 37° C. for 45-70 minutes and each plate was read at 450 nm on a microplate reader. The data was edited using SoftMax Pro and a 4-P fitting curve was plotted.

[5] = tested on: NCI-H226 (human lung cancer cells); assay: Inhibition of cell line proliferation, CCK8; format: cell-based
Protocol: as §3
Experimental operations: NCI-H226, CFPAC-1 and MDA-MB-468 cells were prepared in advance and counted; MDA-MB-468 and CFPAC-1 cells were plated at a density of 2×10^4 cells/ml (100 μl/well) and NCI-H226 cells were plated at a density of 1×10^4 cells/ml (100 μl/well) in 96-well plates; and negative control and blank control wells were set on each plate. After adherent cell culture overnight, the diluted samples to be tested were added at 50 μl/well. The plates were placed in an incubator at 37° C., 5% CO2 and cultured for 68-72 hours. To each well, 15 μl (10% of the liquid volume in a well) of a color developing solution from CCK8 was added; and the plates were incubated at 37° C. for 45-70 minutes and each plate was read at 450 nm on a microplate reader. The data was edited using SoftMax Pro and a 4-P fitting curve was plotted.

[6] = tested on: CFPAC-1 (human pancreatic cancer cells); assay: Inhibition of cell line proliferation, CCK8; format: cell-based; details: for IC50 (MMAE)/IC50 (conjugate): CFPAC-1; for IC50: CFPAC-1, 68-72 hours, CCK8
[7] = tested on: MDA-MB-468 (human breast cancer cells); assay: Inhibition of cell line proliferation, CCK8; format: cell-based
[8] = tested on: SCLC-21H (small cell lung cancer cells); assay: Tumor growth inhibition in subcutaneous xenograft model (CDX); format: in vivo, BALB/c-nude mice; details: SCLC-21H CDX
Protocol: as §1, §2

[9] = tested on: NCI-H226 (human lung cancer cells); assay: as above; format: in vivo, BALB/c-nude mice
Protocol: as §1, §2

SMILES | anti-tumor growth effect (in words) [1] | IC50 ratio (MMAE/conjugate) [2] | IC50 [2] [nM] | IC50 (MMAE)/IC50 (conjugate) ([3]; PANC-1) | IC50 ([3]; PANC-1, 68-72 hours, CCK8) [nM] | IC50 (MMAE)/IC50 (conjugate) [4] | IC50 [4] [nM] | IC50 (MMAE)/IC50 (conjugate) ([5]; NCI-H226) | IC50 ([5]; NCI-H226, 68-72 hours, CCK8) [nM] | IC50 (MMAE)/IC50 (conjugate) [6] | IC50 [6] [nM] | IC50 (MMAE)/IC50 (conjugate) ([7]; MDA-MB-468) | IC50 ([7]; MDA-MB-468, 68-72 hours, CCK8) [nM] | anti-tumor growth effect (in words) [8] | anti-tumor growth effect (in words) [9]
CC[C@H](C)[C@@H]([C@@H](CC(=O)N1CCC[C@H]1[C@H](OC)[C@@H](C)C(=O)N[C@H](C)[C@@H](O)c1ccccc1)OC)N(C)C(=O)[C@@H](NC(=O)[C@H](C(C)C)N(C)C(=O)OCc1ccc(NC(=O)C(CCCNC(N)=O)NC(=O)[C@@H](NC(=O)CCCCCN2C(=O)CC(SC[C@@H](NC(=O)CCCCCNC(=O)[C@H](CCCCN)NC(=O)[C@H](CC(=O)O)NC(=O)[C@H](CC(=O)O)NC(=O)Cc3ccc(CNC(=O)NCCCC[C@H](NC(=O)N[C@@H](CCC(=O)O)C(=O)O)C(=O)O)cc3)C(=O)NCCOCCOCCOCCOCCC(=O)N[C@@H](CCCCN)C(=O)N[C@@H](CCC(=O)O)C(=O)N[C@@H](Cc3ccccc3)C(=O)N[C@@H](CC(C)C)C(=O)N[C@@H](Cc3cnc[nH]3)C(=O)N3CCC[C@H]3C(=O)N[C@@H](CO)C(=O)N[C@@H](CCCCN)C(=O)NC(C(=O)N[C@@H](CC(=O)O)C(=O)N[C@@H](CC(C)C)C(=O)N3CCC[C@H]3C(=O)N[C@@H](CCCNC(=N)N)C(=O)O)C(C)C)C2=O)C(C)C)cc1)C(C)C (stereo partly drawn) [CB-1020] (I: {EuK-CO}-[X2]DDK[Ahx][dC][PEG4]KEFLHPSK[ξV]DLPR-OH / II: V[ξCit][PABC][NMeV]V[Dil][Dolaproine]-X1; linker I:6-II:N via Hexanoyl(6-succinimido-3yl)) | obvious anti-tumor growth effect | 0.0179 | 168 | 0.0044 | 458 | 0.0070 | 287 | 0.00384 | 1570 | 0.005 | 3000 |  |  |  | 
CC[C@H](C)[C@@H]([C@@H](CC(=O)N1CCC[C@H]1[C@H](OC)[C@@H](C)C(=O)N[C@H](C)[C@@H](O)c1ccccc1)OC)N(C)C(=O)[C@@H](NC(=O)[C@H](C(C)C)N(C)C(=O)OCc1ccc(NC(=O)C(CCCNC(N)=O)NC(=O)[C@@H](NC(=O)CCCCCN2C(=O)CC(SC[C@@H](NC(=O)CCCCCNC(=O)[C@H](CCCCN)NC(=O)[C@H](CC(=O)O)NC(=O)[C@H](CC(=O)O)NC(=O)Cc3ccc(CNC(=O)NCCCC[C@H](NC(=O)N[C@@H](CCC(=O)O)C(=O)O)C(=O)O)cc3)C(=O)NCCOCCOCCOCCOCCC(=O)NCCCCC(N[C@@H](Cc3ccc(O)cc3)C(=O)N[C@@H](CO)C(=O)N[C@@H](Cc3c[nH]c4ccccc34)C(=O)N[C@@H](Cc3cnc[nH]3)C(=O)[C@H]3CCC(=O)N3)C(=O)N[C@@H](CC(C)C)C(=O)N[C@@H](CCCNC(=N)N)C(=O)N3CCC[C@H]3C(=O)CN)C2=O)C(C)C)cc1)C(C)C (stereo partly drawn) [CB-1320] |  | 0.043 | 60 |  |  | 0.016 | 93 |  |  | 0.014 | 1090 | 0.011 | 212 | obvious anti-tumor growth effect | obvious anti-tumor growth effect
